US20150044144A1, “DISINFECTANT SOLUTION” (RAYMAT MATERIALS, INC., priority 2012, published 2015)
One block for each compound: values may come before it.

Experiment: Screening stability of different colorants with ORP by UV-Vis
Settings: 300 ppm colorant; for Colour / UV-vis stability of colorant in ORP solution: 25° C., vs control water solution

Colour / UV-vis stability of colorant in ORP solution (low concentration ORP (30 ppm FAC)): the red color disappeared quickly
SMILES: O=C1OC2(c3ccccc31)c1cc(Br)c(O)c(Br)c1Oc1c2cc(Br)c(O)c1Br [Eosine Free Acid Solvent Red 43 D&C red 21]

Colour / UV-vis stability of colorant in ORP solution (high concentration ORP (100 ppm FAC)): the red color disappeared quickly
SMILES: O=C([O-])c1ccccc1-c1c2cc(Br)c(=O)c(Br)c-2oc2c(Br)c([O-])c(Br)cc12.[Na+].[Na+] [Eosine YS Acid Red 87 D&C red 22]

UV-visible absorbance of the colored ORP solution (high and low FAC ORP solutions, after 10 days): decreased significantly
SMILES: COc1cc(S(=O)(=O)[O-])c(C)cc1N=Nc1c(O)ccc2cc(S(=O)(=O)[O-])ccc12.[Na+].[Na+] [Food dye FD&C red 40]
